Data: patent publication US10968225B2, “Compounds and compositions for the treatment of cystic fibrosis” (Fondazione Istituto Italiano Di Tecnologia, priority 2017, dated 2021)
Counter-ions that a name gives are not always drawn.

Each compound was assayed against T1, mutant CFTR (Homo sapiens, UniProt P13569, DEL508-508) (assay: Fluorescence (HS-YFP) assay for CFTR activity, corrector assay). Conditions: CFBE41o- and FRT cells with stable expression of mutant CFTR, read-out: activity (EC50).
T1 construct: expressed in transfected cells
Assay type: cell-based

T1 sequence (P13569 with tags, fused parts or gaps DEL508-508): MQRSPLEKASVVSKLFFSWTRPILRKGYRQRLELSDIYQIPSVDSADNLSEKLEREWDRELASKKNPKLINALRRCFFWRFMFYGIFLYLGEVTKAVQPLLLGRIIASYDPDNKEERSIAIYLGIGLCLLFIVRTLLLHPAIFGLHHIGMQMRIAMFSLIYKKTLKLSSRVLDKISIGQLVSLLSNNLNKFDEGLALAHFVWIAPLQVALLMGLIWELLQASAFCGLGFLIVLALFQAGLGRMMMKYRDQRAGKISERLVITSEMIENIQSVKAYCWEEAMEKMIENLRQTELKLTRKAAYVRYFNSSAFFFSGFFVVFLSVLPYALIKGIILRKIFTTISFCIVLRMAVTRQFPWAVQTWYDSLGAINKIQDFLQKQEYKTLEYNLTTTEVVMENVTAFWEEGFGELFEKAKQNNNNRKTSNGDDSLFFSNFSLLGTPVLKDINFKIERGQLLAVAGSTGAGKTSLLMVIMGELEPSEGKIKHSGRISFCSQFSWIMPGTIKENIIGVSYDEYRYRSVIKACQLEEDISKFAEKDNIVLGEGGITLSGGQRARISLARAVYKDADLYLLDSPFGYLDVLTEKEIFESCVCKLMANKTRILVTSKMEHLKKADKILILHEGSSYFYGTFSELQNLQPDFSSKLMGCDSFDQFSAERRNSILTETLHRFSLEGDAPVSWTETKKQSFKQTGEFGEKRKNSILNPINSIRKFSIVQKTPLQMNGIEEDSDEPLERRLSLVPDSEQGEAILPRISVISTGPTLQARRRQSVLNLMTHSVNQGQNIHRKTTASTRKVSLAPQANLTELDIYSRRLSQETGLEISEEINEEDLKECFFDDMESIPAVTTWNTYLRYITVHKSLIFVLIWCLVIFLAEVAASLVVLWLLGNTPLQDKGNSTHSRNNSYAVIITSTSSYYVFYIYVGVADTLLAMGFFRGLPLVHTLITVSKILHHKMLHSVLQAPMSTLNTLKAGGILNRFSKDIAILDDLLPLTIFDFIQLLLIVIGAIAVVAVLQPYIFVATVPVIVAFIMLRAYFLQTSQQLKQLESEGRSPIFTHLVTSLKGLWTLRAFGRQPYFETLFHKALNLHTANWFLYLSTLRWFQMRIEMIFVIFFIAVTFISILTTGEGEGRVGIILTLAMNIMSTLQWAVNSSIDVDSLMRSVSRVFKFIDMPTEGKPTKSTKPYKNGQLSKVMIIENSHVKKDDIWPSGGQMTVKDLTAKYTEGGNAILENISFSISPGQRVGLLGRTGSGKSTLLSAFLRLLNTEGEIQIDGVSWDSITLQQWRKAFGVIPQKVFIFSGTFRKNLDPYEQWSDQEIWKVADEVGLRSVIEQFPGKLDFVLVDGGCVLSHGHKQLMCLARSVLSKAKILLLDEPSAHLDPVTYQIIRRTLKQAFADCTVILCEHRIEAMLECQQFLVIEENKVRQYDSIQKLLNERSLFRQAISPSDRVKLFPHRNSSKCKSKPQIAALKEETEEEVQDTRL

SMILES	EC50 [µM]
CN(C(=O)c1cccc(-n2nc(C(F)(F)F)c3c2C(Oc2cc(C(=O)O)ccn2)CCC3)c1)c1ccc2c(c1)OC(F)(F)O2 (single isomer, unassigned) [Compound 196, (S) or (R)-2-[[1-[3-[(2,2-Difluoro-1,3-benzodioxol-5-yl)-methyl-carbamoyl]phenyl]-3-(trifluoromethyl)-4,5,6,7-tetrahydroindazol-7-yl]oxy]pyridine-4-carboxylic acid]	< 1
CN(C(=O)c1cccc(-n2nc(C(F)(F)F)c3c2CCN(C(=O)c2ccc(C(=O)O)cc2)C3)c1)c1ccc2c(c1)OCO2 [Compound 044, 4-[1-[3-[1,3-Benzodioxol-5-yl(methyl)carbamoyl]phenyl]-3-(trifluoromethyl)-6,7-dihydro-4H-pyrazolo[4,3-c]pyridine-5-carbonyl]benzoic acid]	> 2
CN(C(=O)c1cccc(-n2nc(C(F)(F)F)c3c2C(Oc2ccc(C(=O)O)cc2)CCC3)c1)c1cnc2c(c1)OCC2 (racemic) [Compound 259, (rac)-4-[[1-[3-[2,3-Dihydrofuro[3,2-b]pyridin-6-yl(methyl)carbamoyl]phenyl]-3-(trifluoromethyl)-4,5,6,7-tetrahydroindazol-7-yl]oxy]benzoic acid]	< 1
CN(C(=O)c1cccc(-n2nc(C(F)(F)F)c3c2CCCC3)c1)c1ccc2c(c1)OCO2 [Compound 005, N-(1,3-Benzodioxol-5-yl)-N-methyl-3-[3-(trifluoromethyl)-4,5,6,7-tetrahydroindazol-1-yl]benzamide]	< 1
Cc1noc(C)c1S(=O)(=O)N1[C@H]2CC[C@@H]1c1c(C(F)(F)F)nn(-c3cccc(C(=O)N(C)c4ccc5c(c4)OCO5)c3)c1C2 (single isomer, unassigned) [Compound 129, (4R,7S)- or (4S,7R)—N-(Benzo[d][1,3]dioxol-5-yl)-3-(9-((3,5-dimethylisoxazol-4-yl)sulfonyl)-3-(trifluoromethyl)-5,6,7,8-tetrahydro-4,7-epiminocyclohepta[c]pyrazol-1(4H)-yl)-N-methylbenzamide]	< 1
Cc1nc2ccc(NC(=O)c3cccc(-n4nc(C(F)(F)F)c5c4CCN(C(=O)C(C)(C)C)C5)c3)cn2n1 [Compound 078, 3-[5-(2,2-Dimethylpropanoyl)-3-(trifluoromethyl)-6,7-dihydro-4Hpyrazolo[4,3-c]pyridin-1-yl]-N-(2-methyl-[1,2,4]triazolo[1,5-a]pyridin-6-yl)benzamide]	> 2
CN(C(=O)c1cccc(-n2nc(C(F)(F)F)c3c2CCN(S(=O)(=O)c2cccc(C(=O)O)c2)C3)c1)c1ccc2c(c1)OCO2 [Compound 061, 3-[[1-[3-[1,3-Benzodioxol-5-yl(methyl)carbamoyl]phenyl]-3-(trifluoromethyl)-6,7-dihydro-4H-pyrazolo[4,3-c]pyridin-5-yl]sulfonyl]benzoic acid]	> 2
Cc1n[nH]c(C)c1S(=O)(=O)N1[C@H]2CC[C@@H]1c1c(C(F)(F)F)nn(-c3cccc(C(=O)N(C)c4ccc5c(c4)OCO5)c3)c1C2 (single isomer, unassigned) [Compound 130, (4R,7S)- or (4S,7R)—N-(Benzo[d][1,3]dioxol-5-yl)-3-(9-((3,5-dimethyl-1H-pyrazol-4-yl)sulfonyl)-3-(trifluoromethyl)-5,6,7,8-tetrahydro-4,7-epiminocyclohepta[c]pyrazol-1(4H)-yl)-N-methylbenzamide]	< 1
Cc1nn(-c2cccc(C(=O)N(C)c3ccc4c(c3)OC(F)(F)O4)c2)c2c1CCCC2 [Compound 103, N-(2,2-Difluoro-1,3-benzodioxol-5-yl)-N-methyl-3-(3-methyl-4,5,6,7-tetrahydroindazol-1-yl)benzamide]	> 2
CN(C(=O)c1cccc(-n2nc(C(F)(F)F)c3c2CCOC3)c1)c1ccc2c(c1)OCO2 [Compound 054, N-(1,3-Benzodioxol-5-yl)-N-methyl-3-[3-(trifluoromethyl)-6,7-dihydro-4H-pyrano[4,3-c]pyrazol-1-yl]benzamide]	< 1
CN(C(=O)c1cccc(-n2nc(C(F)(F)F)c3c2C(Oc2ncc(C(=O)O)cn2)COC3)c1)c1ccc2c(c1)OCC2 (single isomer, unassigned) [Compound 299, (S) or (R)-2-[[1-[3-[2,3-dihydrobenzofuran-6-yl(methyl)carbamoyl]phenyl]-3-(trifluoromethyl)-6,7-dihydro-4H-pyrano[4,3-c]pyrazol-7-yl]oxy]pyrimidine-5-carboxylic acid]	1 to 2
CN(C(=O)c1cccc(-n2nc(C(F)(F)F)c3c2CC2CCC3N2)c1)c1ccc2c(c1)OCO2 (racemic) [Compound 022, N-(Benzo[d][1,3]dioxol-5-yl)-N-methyl-3-(3-(trifluoromethyl)-5,6,7,8-tetrahydro-4,7-epiminocyclohepta[c]pyrazol-1(4H)-yl)benzamide hydrochloride]	< 1
COc1ccc(NC(=O)c2cccc(-n3nc(C(F)(F)F)c4c3CCN(C(=O)C(C)(C)C)C4)c2)cn1 [Compound 080, 3-[5-(2,2-Dimethylpropanoyl)-3-(trifluoromethyl)-6,7-dihydro-4Hpyrazolo[4,3-c]pyridin-1-yl]-N-(6-methoxy-3-pyridyl)benzamide]	> 2
CN(C(=O)c1cccc(-n2nc(C(F)(F)F)c3c2CCN(C(=O)C(C)(C)C)C3)c1)c1ccc2nccnc2c1 [Compound 141, 3-[5-(2,2-Dimethylpropanoyl)-3-(trifluoromethyl)-6,7-dihydro-4H-pyrazolo[4,3-c]pyridin-1-yl]-N-methyl-N-quinoxalin-6-yl-benzamide]	< 1
Cc1nc2ccc(N(C)C(=O)c3cccc(-n4nc(C(F)(F)F)c5c4C(Oc4ccc(C(=O)O)cc4)CCC5)c3)cc2o1 (stereo not shown) [Compound 157, 4-[[1-[3-[Methyl-(2-methyl-1,3-benzoxazol-6-yl)carbamoyl]phenyl]-3-(trifluoromethyl)-4,5,6,7-tetrahydroindazol-7-yl]oxy]benzoic acid]	< 1
CN(C(=O)c1cccc(-n2nc(C(F)(F)F)c3c2CCNC3)c1)c1ccc2c(c1)OCO2 [Compound 002, N-(1,3-Benzodioxol-5-yl)-N-methyl-3-[3-(trifluoromethyl)-4,5,6,7-tetrahydropyrazolo[4,3-c]pyridin-1-yl] benzamide hydrochloride]	< 1
CN(C(=O)c1cccc(-n2nc(C(F)(F)F)c3c2CCN(C(=O)C(C)(C)O)C3)c1)c1ccc2c(c1)OCO2 [Compound 058, N-(1,3-Benzodioxol-5-yl)-3-[5-(2-hydroxy-2-methyl-propanoyl)-3-(trifluoromethyl)-6,7-dihydro-4H-pyrazolo[4,3-c]pyridin-1-yl]-N-methyl-benzamide]	< 1
O=C(O)c1ccc(OC2CCCc3c(C(F)(F)F)nn(-c4cccc(C(=O)Nc5ccc6c(c5)OC(F)(F)O6)c4)c32)cc1 (stereo not shown) [Compound 253, 4-[[1-[3-[(2,2-Difluoro-1,3-benzodioxol-5-yl)carbamoyl]phenyl]-3-(trifluoromethyl)-4,5,6,7-tetrahydroindazol-7-yl]oxy]benzoic acid]	> 2
CC(C)Oc1cncc(N(C)C(=O)c2cccc(-n3nc(C(F)(F)F)c4c3C(Oc3ccc(C(=O)O)cc3)CCC4)c2)c1 (racemic) [Compound 312, 4-[[1-[3-[(5-Isopropoxy-3-pyridyl)-methyl-carbamoyl]phenyl]-3-(trifluoromethyl)-4,5,6,7-tetrahydroindazol-7-yl]oxy]benzoic acid]	1 to 2
